Measurements from paper PMC11274943, “Discovery of Benzisothiazolone Derivatives as Bifunctional Inhibitors of HIV-1 Reverse Transcriptase DNA Polymerase and Ribonuclease H Activities” (Biomolecules, 2024).
Where “and” joins values, the source holds several entries; their conditions need not be identical. Equal values may be shown once.

Columns and labels:
[1] = tested on: Y181C HIV-1 RT RNase H activity; assay: FRET-based RT RNase H cleavage assay, Y181C RT; assay type: biochemical; details: Y181C RT; fold resistance IC50 mutant/IC50 WT
Description: (§1) WT (wild-type) RT, and RTs harboring the NNRTI-resistant mutations K101E, K103N, Y181C, Y188C, G190A and P236L, were overexpressed and purified to homogeneity as described previously. The RT concentration was determined spectrophotometrically at 280 nm using an absorbance coefficient of 260,450 M^−1·cm^−1. The 7-hydroxy tropolone derivative 19,616 (2,7-dihydroxy 2,4,6-cyclo-heptatrien-1-one) was purchased from Molecular Diversity Preservation International (Basel, Switzerland). Nevirapine was purchased from Selleckchem (Houston, TX, USA). The benzisothiazolone derivatives were procured from MolPort (New York, NY, USA) or Enamine (Kyiv, Ukraine). The DNA and RNA oligonucleotides were synthesized and purified by Integrated DNA Technologies (Coralville, IA, USA). All other reagents were of the highest quality available and were used without further purification.
(§2) The following RNA/DNA T/P substrate was used in the present study: an 18-nucleotide RNA template (RNA-18T: 5′-[…]-3′) was annealed to an 18-nucleotide primer (DNA-18T: 5′-[…]-3′), as described previously. Fluorescein and IowaBlack FQTM were covalently attached to the 3′- and 5′-ter-mini of the RNA and DNA oligonucleotides, respectively.
(§3) The FRET-based RNase H cleavage assays were carried out as described previously. Fluorescence was measured with a SpectraMax M2 microplate spectrofluorometer (Molecular Devices, San Jose, CA, USA) using an excitation wavelength of 490 nm and an emission wavelength of 528 nm. Data were analyzed using SoftMax Pro software, version 4.7.1 (Molecular Devices, San Jose, CA, USA).

[2] = tested on: Y188C HIV-1 RT RNase H activity; assay: FRET-based RT RNase H cleavage assay, Y188C RT; assay type: biochemical; details: Y188C RT; fold resistance IC50 mutant/IC50 WT
Description: as §1, §2, §3

[3] = target: T1, Y188C HIV-1 RT RNase H activity (Human immunodeficiency virus type 1 group M subtype B, UniProt P04585, Y775C); assay: FRET-based RT RNase H cleavage assay, Y188C RT; assay type: biochemical
T1 construct: made in house
Description: as §1, §2, §3

[4] = target: T2, K103N HIV-1 RT RNase H activity (Human immunodeficiency virus type 1 group M subtype B, UniProt P04585, K690N); assay: FRET-based RT RNase H cleavage assay, K103N RT; assay type: biochemical
T2 construct: made in house
Description: as §1, §2, §3

[5] = tested on: K103N HIV-1 RT RNase H activity; assay: FRET-based RT RNase H cleavage assay, K103N RT; assay type: biochemical; details: K103N RT; fold resistance IC50 mutant/IC50 WT
Description: as §1, §2, §3

HIV-1 = assay: Antiviral activity (HIV-1 replication) in TZM-bl cells; assay type: cell-based; details: Human immunodeficiency virus 1, mean ± SD
Description: The genes for Y181C, Y181I, Y181V and Y181F were cloned into HIV-1LAI. NNRTI susceptibility was determined in TZM-bl cells, as described previously.
(§4) Next, we re-purchased 10 hit compounds with IC50 values < 1.0 µM for the inhibition of RT RNase H activity that were commercially available in sufficient quantities for further analysis. We assessed their antiviral activity and cytotoxicity in TZM-bl cells, as described previously.

[6] = target: T3, WT HIV-1 RT RNase H activity (Human immunodeficiency virus type 1 group M subtype B, UniProt P04585); assay: biochemical; assay type: biochemical
T3 construct: made in house
Description: as §1, with “Nevirapine was purchased from Selleckchem (Houston, TX, USA).” left out
Compounds were screened at a final concentration of 10 µM in 1× assay buffer (50 mM Tris pH 8.0, 60 mM KCl, 5 mM MgCl2) containing 1% DMSO in 384-well Greiner black polystyrene plates (VWR catalog # 82051-272). A total of 10 µL of intermediate diluted compounds (100 µM in 10% DMSO) was transferred into assay plates using the Evolution-3 (EP3) (Perkin Elmer, Waltham, MA, USA) automated liquid handling platform outfitted with a 384-well transfer head. A total of 40 µL of RT-RNase H enzyme (60 ng per well) were then dispensed into each well using the Titertek MAP-C2 reagent dispenser platform (Huntsville, AL, USA). A total of 50 µL of the RNA/DNA duplex (140 nM) substrate was then dispensed into each well using the MAP-C2 dispenser, and the assay plates were then incubated at room temperature for 20 min. After 20 min, the assay was terminated by the addition of 10 µL of 1 M EDTA pH 9.0 stop buffer. Relative fluorescent unit (RFU) signals, Excitation 490 nm and Emission 528 nm (Cutoff 515 nm), were captured on the Spectromax M5e plate reader (Molecular Devices, Menlo, CA, USA). […] The template also calculated the plate signal-to-background (S:B) ratios (mean maximum signal/mean minimum signal) and Z’-factor coefficient HTS performance statistics.
as §2, §3
We implemented a rapid, robust and inexpensive fluorescence-based 384-well assay for the measurement of RT RNase H activity, previously described by Parniak et al.. The substrate comprises an 18-nucleotide 3′-fluorescein-labeled heteropolymeric RNA annealed to a complementary 5′-dabcyl-modified DNA. RT cleaves the RNA strand of this substrate close to the 3′ end, promoting the dissociation of the fluorescein-labeled RNA fragment and generating a detectable fluorescent signal. We used this HTS assay to screen 65,239 compounds at a final concentration of 10 µM.

[7] = Cytotoxicity in TZM-bl cells; assay type: cell-based; details: human, TZM-bl cell death
Description: as §4

[8] = target: T4, P236L HIV-1 RT RNase H activity (Human immunodeficiency virus type 1 group M subtype B, UniProt P04585, P823L); assay: FRET-based RT RNase H cleavage assay, P236L RT; assay type: biochemical
T4 construct: made in house
Description: as §1, §2, §3

[9] = tested on: P236L HIV-1 RT RNase H activity; assay: FRET-based RT RNase H cleavage assay, P236L RT; assay type: biochemical; details: P236L RT; fold resistance IC50 mutant/IC50 WT
Description: as §1, §2, §3

| SMILES | Inhibition of RT RNase H Activity Fold-R [1] | Inhibition of RT RNase H Activity Fold-R [2] | IC50 [3] | IC50 [4] | Inhibition of RT RNase H Activity Fold-R [5] | EC50 (HIV-1) | IC50 [6] | CC50 [7] | IC50 [8] | Inhibition of RT RNase H Activity Fold-R [9] |
| --- | --- | --- | --- | --- | --- | --- | --- | --- | --- | --- |
| Cc1ccc(-n2sc3ccccc3c2=O)cc1S(=O)(=O)N1CCCCC1 [Compound 1, 2-(4-methyl-3-(piperidin-1-ylsulfonyl)phenyl)benzo[d]isothiazol-3(2H)-one] | 2.9 | 2.0 | 320 ± 10 nM | 340 ± 40 nM | 2 and 2.1 | 1680 ± 940 nM | 160 ± 30 nM | ≥ 100000 nM | 220 ± 10 nM | 1.4 |
| CCOC(=O)Cc1csc(-n2sc3ccccc3c2=O)n1 [Compound 2, ethyl 2-(2-(3-oxobenzo[d]isothiazol-2(3H)-yl)thiazol-4-yl)acetate] | 4.2 | 4.5 | 590 ± 40 nM | 240 ± 120 nM | 1.8 | 2680 ± 540 nM | 130 ± 40 nM | ≥ 100000 nM | 210 ± 10 nM | 1.6 |
| CCN(CC)S(=O)(=O)c1cccc(-n2sc3ccccc3c2=O)c1 [Compound 4, N,N-diethyl-3-(3-oxobenzo[d]isothiazol-2(3H)-yl)benzenesulfonamide] | 1.0 | 4.2 | 1100 ± 320 nM | 830 ± 230 nM | 3.2 | 3270 ± 490 nM | 260 ± 80 nM | ≥ 100000 nM | 310 ± 40 nM | 1.2 |
